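Briefly, cells in 96-well plates were exposed to five compound concentrations for 48 h, and endpoints were estimated by linear interpolation. The concentration for full growth arrest is given as TGI.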
Key:
Test in all cases: DTP human tumour cell line panel, 48 h
[1] = system: MALME-3M melanoma
[2] = system: NCI-H460 lung
[3] = system: U251 CNS
[4] = system: SF-268 CNS
[5] = system: ACHN renal
[6] = system: HCC-2998 colon
[7] = system: SF-539 CNS
[8] = system: OVCAR-3 ovarian
[9] = system: XF 498 CNS
[10] = system: M19-MEL melanoma
[11] = system: RXF 393 renal
[12] = system: IGROV1 ovarian
[13] = system: SN12C renal
[14] = system: LXFL 529 NSCLC
[15] = system: OVCAR-8 ovarian
[16] = system: SW-620 colon
[17] = system: SF-295 CNS
[18] = system: HOP-92 NSCLC
[19] = system: SK-MEL-5 melanoma
[20] = system: SK-MEL-28 melanoma
[21] = system: HT29 colon
[22] = system: KM20L2 colon
[23] = system: A498 renal
[24] = system: OVCAR-4 ovarian
[25] = system: LOX IMVI melanoma
[26] = system: OVCAR-5 ovarian
[27] = system: UACC-257 melanoma
[28] = system: NCI-H226 lung
[29] = system: HL-60(TB) leukemia
[30] = system: M14 melanoma
[31] = system: SNB-78 CNS
[32] = system: CAKI-1 renal
[33] = system: HOP-62 NSCLC
[34] = system: TK-10 renal
[35] = system: RPMI-8226 leukemia
[36] = system: HOP-18 NSCLC
[37] = system: DLD-1 colon
[38] = system: A549 NSCLC
[39] = system: SNB-19 CNS
[40] = system: NCI-H522 lung
[41] = system: SK-OV-3 ovarian
[42] = system: MOLT-4 leukemia
[43] = system: UO-31 renal
[44] = system: KM12 colon
[45] = system: SNB-75 CNS
[46] = system: DMS 273 small cell lung
[47] = system: NCI-H23 lung
[48] = system: COLO 205 colon
[49] = system: CCRF-CEM leukemia
[50] = system: SK-MEL-2 melanoma
[51] = system: K-562 leukemia
[52] = system: HCT-116 colon
[53] = system: EKVX NSCLC
[54] = system: 786-0 renal
[55] = system: UACC-62 melanoma
[56] = system: DMS 114 small cell lung
[57] = system: DU-145 prostate
[58] = system: MCF7 breast
[59] = system: MDA-MB-435
[60] = system: NCI/ADR-RES ovarian
[61] = system: BT-549 breast
[62] = system: PC-3 prostate
[63] = system: MDA-MB-231 breast
[64] = system: SR leukemia
[65] = system: HS 578T breast
[66] = system: T-47D breast
[67] = system: HCT-15 colon

In the case of `COC(c1ccccc1)C(c1ccccc1)N1CCOCC1` (stereo not drawn), the TGI [1] is reported as > 100 µM, the TGI [2] is reported as > 100 µM and the TGI [3] is reported as > 100 µM. For the same molecule, the TGI [4] was > 100 µM, the TGI [5] was > 100 µM and the TGI [6] was > 100 µM. For the same molecule, the TGI [7] was > 100 µM, the TGI [8] was > 100 µM and the TGI [9] was > 100 µM. For the same molecule, the TGI [10] was > 100 µM, the TGI [11] was > 100 µM and the TGI [12] was > 100 µM. The TGI [13] was > 100 µM, the TGI [14] was > 100 µM and the TGI [15] was > 100 µM. For the same molecule, the TGI [16] was > 100 µM, the TGI [17] was > 100 µM and the TGI [18] was > 100 µM. The TGI [19] was > 100 µM, the TGI [20] was > 100 µM and the TGI [21] was > 100 µM. For the same molecule, the TGI [22] was > 100 µM, the TGI [23] was > 100 µM and the TGI [24] was > 100 µM. The TGI [25] was > 100 µM, the TGI [26] was > 100 µM and the TGI [27] was > 100 µM. For the same molecule, the TGI [28] was > 100 µM, the TGI [29] was > 100 µM and the TGI [30] was > 100 µM. For the same molecule, the TGI [31] was > 100 µM, the TGI [32] was > 100 µM and the TGI [33] was > 100 µM. The TGI [34] was > 100 µM, the TGI [35] was > 100 µM and the TGI [36] was > 100 µM. The TGI [37] was > 100 µM, the TGI [38] was > 100 µM and the TGI [39] was > 100 µM. For the same molecule, the TGI [40] was > 100 µM, the TGI [41] was > 100 µM and the TGI [42] was > 100 µM. The TGI [43] was > 100 µM, the TGI [44] was > 100 µM and the TGI [45] was > 100 µM. For the same molecule, the TGI [46] was > 100 µM, the TGI [47] was > 100 µM and the TGI [48] was > 100 µM. For the same molecule, the TGI [49] was > 100 µM, the TGI [50] was > 100 µM and the TGI [51] was > 100 µM. For the same molecule, the TGI [52] was > 100 µM, the TGI [53] was > 100 µM and the TGI [54] was > 100 µM. For the same molecule, the TGI [55] was > 100 µM and the TGI [56] was > 100 µM.

In the case of `NC(N)=NS(=O)(=O)c1ccc(NC(=O)c2cccc3c(=O)c4ccccc4[nH]c23)cc1`, the TGI [1] is reported as > 100 µM, the TGI [2] is reported as > 100 µM and the TGI [3] is reported as 69.2 µM. For the same molecule, the TGI [4] was > 100 µM, the TGI [5] was > 100 µM and the TGI [6] was > 100 µM. For the same molecule, the TGI [7] was > 100 µM, the TGI [57] was > 100 µM and the TGI [8] was > 100 µM. For the same molecule, the TGI [9] was > 100 µM, the TGI [10] was > 100 µM and the TGI [11] was > 80.3 µM. For the same molecule, the TGI [12] was > 100 µM, the TGI [58] was > 100 µM and the TGI [13] was > 100 µM. The TGI [14] was > 100 µM, the TGI [15] was > 100 µM and the TGI [16] was > 100 µM. For the same molecule, the TGI [17] was > 100 µM, the TGI [18] was > 96.2 µM and the TGI [19] was > 100 µM. For the same molecule, the TGI [20] was > 100 µM, the TGI [21] was > 100 µM and the TGI [22] was > 100 µM. For the same molecule, the TGI [23] was > 100 µM, the TGI [24] was > 100 µM and the TGI [25] was > 100 µM. The TGI [26] was > 100 µM, the TGI [27] was > 100 µM and the TGI [28] was > 100 µM. The TGI [29] was > 100 µM, the TGI [30] was > 100 µM and the TGI [31] was > 100 µM. For the same molecule, the TGI [32] was > 100 µM, the TGI [33] was > 100 µM and the TGI [34] was > 81.2 µM. The TGI [35] was > 100 µM, the TGI [59] was > 100 µM and the TGI [36] was > 100 µM. The TGI [60] was > 100 µM, the TGI [37] was > 100 µM and the TGI [38] was > 100 µM. The TGI [61] was > 100 µM, the TGI [39] was > 100 µM and the TGI [40] was > 100 µM. The TGI [62] was > 100 µM, the TGI [41] was > 91.9 µM and the TGI [63] was > 100 µM. For the same molecule, the TGI [42] was > 100 µM, the TGI [43] was > 100 µM and the TGI [44] was > 100 µM. For the same molecule, the TGI [45] was 51.3 µM, the TGI [46] was > 100 µM and the TGI [64] was > 100 µM. The TGI [65] was > 100 µM, the TGI [47] was > 100 µM and the TGI [66] was > 100 µM. The TGI [48] was > 100 µM, the TGI [49] was > 31.6 µM and the TGI [50] was > 100 µM. The TGI [51] was > 56.2 µM, the TGI [52] was > 100 µM and the TGI [53] was > 100 µM. For the same molecule, the TGI [54] was > 92.6 µM, the TGI [55] was > 100 µM and the TGI [56] was > 100 µM. The TGI [67] was > 100 µM.

Reference: PubChem BioAssay (NCI)
